This note sets out measurements from ChEMBL document CHEMBL4680194, “Synthesis and biological evaluation of 1,2,4-triazole derivatives as potential neuroprotectant against ischemic brain injury” (Eur J Med Chem, 2020).

The source made the active and inactive calls. No cut-off for these calls is given here.

For series [1], the system named is PC-12. The series can be described thus: Inhibition of SNP-induced mitochondrial membrane potential loss in rat PC-12 cells assessed as increase in red fluoresence at 2.5 to 10 uM incubated for 1 hr followed by SNP stimulation and measured after 24 hrs by JC-1 staining based fluorescence microscopy. Format: functional, cell-based. Particulars: dose 2.5-10 µM, time 25.0 hrs.

Series [2] concerns the target T1, Nuclear factor erythroid 2-related factor 2 (Rattus norvegicus) (UniProt O54968).
T1 sequence (whole entry): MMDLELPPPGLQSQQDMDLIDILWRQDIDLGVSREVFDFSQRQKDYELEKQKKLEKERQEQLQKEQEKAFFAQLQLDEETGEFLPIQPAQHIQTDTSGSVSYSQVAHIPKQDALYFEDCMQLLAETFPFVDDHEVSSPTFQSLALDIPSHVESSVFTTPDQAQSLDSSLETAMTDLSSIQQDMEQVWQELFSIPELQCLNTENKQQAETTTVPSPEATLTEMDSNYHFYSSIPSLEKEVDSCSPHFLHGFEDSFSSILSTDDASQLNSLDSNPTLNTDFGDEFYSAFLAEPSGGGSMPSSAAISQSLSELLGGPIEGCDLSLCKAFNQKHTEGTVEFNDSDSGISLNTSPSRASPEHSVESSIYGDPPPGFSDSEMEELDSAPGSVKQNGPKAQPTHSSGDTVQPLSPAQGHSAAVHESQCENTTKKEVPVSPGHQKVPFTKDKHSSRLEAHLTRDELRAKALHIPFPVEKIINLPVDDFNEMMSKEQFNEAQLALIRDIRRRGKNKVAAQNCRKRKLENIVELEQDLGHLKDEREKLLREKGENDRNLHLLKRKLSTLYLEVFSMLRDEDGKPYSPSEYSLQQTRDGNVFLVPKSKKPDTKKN
The series can be described thus: Induction of Nrf2 nuclear translocation in rat PC-12 cells assessed as H2O2-induced SOD level incubated for 1 hr followed by H2O2 stimulation and measured after 5 hrs. Format: cell-based. Particulars: dose 2.5-10 µM, time 6.0 hrs.

The nature of series [3]: Toxicity in […] assessed as behavior changes at 400 mg/kg, ip observed after 12 hrs. Format: organism-based. Particulars: in vivo.
A short description of series [4]: Toxicity in […] assessed as organism death at 400 mg/kg, ip observed for 7 day. Format: organism-based. Particulars: in vivo.
Series [5] has as its target T1, Nuclear factor erythroid 2-related factor 2 (Rattus norvegicus). Put plainly: Induction of Nrf2 nuclear translocation in rat PC-12 cells assessed as H2O2-induced GSH-px level at 10 uM incubated for 1 hr followed by H2O2 stimulation and measured after 5 hrs (reference value: 45.92 +/- 3.64 mU/mg). It is filed as cell-based. Particulars: time 6.0 hrs.
Series [6] has the same target. Put plainly: Induction of Nrf2 nuclear translocation in rat PC-12 cells assessed as SNP-induced GSH level incubated for 1 hr followed by SNP stimulation and measured after 24 hrs. It is filed as cell-based. Particulars: dose 2.5-10 µM, time 25.0 hrs.
Series [7] relates to PC-12. The series can be described thus: Cytoprotective activity against SNP-induced cell death in rat PC-12 cells assessed as increase in cell viability at 10 uM incubated for 1 hr followed by SNP stimulation and measured after 24 hrs by MTT assay. Format: functional. Particulars: time 25 hrs.
In series [8] the target is T1, Nuclear factor erythroid 2-related factor 2 (Rattus norvegicus). Put plainly: Induction of Nrf2 nuclear translocation in rat PC-12 cells assessed as SNP-induced SOD level at 10 uM incubated for 1 hr followed by SNP stimulation and measured after 24 hrs (reference value: 23.74 +/- 2.02 U/mg). It is filed as cell-based. Particulars: time 25.0 hrs.
Series [9] relates to PC-12. Put plainly: Effect on Nrf2 in rat PC-12 cells at 1.25 to 5 uM incubated for 24 hrs by Western blot analysis. It is filed as functional, cell-based. Particulars: dose 1.25-5 µM. (In western blotting, separated proteins are transferred to a membrane and probed.)
The test system of another series is Rattus norvegicus. Put plainly: Neuroprotective activity in Sprague-Dawley rat model of middle cerebral artery occlusion-induced ischemic injury assessed as improvement in behavioral changes at 3 to 30 mg/kg, ip administered TID and measured after 24 hrs. Format: functional, organism-based. Particulars: dose 3-30 mg/kg.
Series [10] concerns the target T1, Nuclear factor erythroid 2-related factor 2 (Rattus norvegicus). Put plainly: Induction of Nrf2 nuclear translocation in rat PC-12 cells assessed as SNP-induced GSH-px level at 2.5 uM incubated for 1 hr followed by SNP stimulation and measured after 24 hrs (reference value: 37.70 +/- 2.88 mU/mg). Format: cell-based. Particulars: time 25.0 hrs.
Series [11] is described as follows: Toxicity in […] assessed as body weight at 400 mg/kg, ip measured on day 3 (reference value: 24.4 to 28.4 g). Format: organism-based. Particulars: in vivo, 72 h, time 3 day.
Series [12] addresses T1, Nuclear factor erythroid 2-related factor 2 (Rattus norvegicus). Put plainly: Induction of Nrf2 nuclear translocation in rat PC-12 cells assessed as SNP-induced GSH-px level at 5 uM incubated for 1 hr followed by SNP stimulation and measured after 24 hrs (reference value: 37.70 +/- 2.88 mU/mg). It is filed as cell-based. Particulars: time 25.0 hrs.
Series [13] shares this target. The series can be described thus: Induction of Nrf2 nuclear translocation in rat PC-12 cells assessed as decrease in cytoplasmic Nrf2 level at 1.25 to 5 uM incubated for 24 hrs by Western blot analysis. It is filed as cell-based. Particulars: dose 1.25-5 µM.
Series [14] shares this target. The series can be described thus: Induction of Nrf2 nuclear translocation in rat PC-12 cells assessed as SNP-induced GSH-px level incubated for 1 hr followed by SNP stimulation and measured after 24 hrs. It is filed as cell-based. Particulars: dose 2.5-10 µM, time 25.0 hrs.
Series [15] is described as follows: MRT in Sprague-Dawley rat at 20 mg/kg, po measured upto 24 hrs by LC-MS/MS analysis. It is filed as ADME, organism-based. Particulars: in vivo.
In series [16] the target is T1, Nuclear factor erythroid 2-related factor 2 (Rattus norvegicus). Put plainly: Induction of Nrf2 nuclear translocation in rat PC-12 cells assessed as H2O2-induced GSH level at 10 uM incubated for 1 hr followed by H2O2 stimulation and measured after 5 hrs (reference value: 65.52 +/- 1.44 nM/mg). It is filed as cell-based. Particulars: time 6.0 hrs.
The nature of series [17]: Clearance in Sprague-Dawley rat at 2 mg/kg, iv measured upto 24 hrs by LC-MS/MS analysis. Format: ADME, organism-based. Particulars: in vivo.
In series [18] the target is T1, Nuclear factor erythroid 2-related factor 2 (Rattus norvegicus). Put plainly: Induction of Nrf2 nuclear translocation in rat PC-12 cells assessed as SNP-induced GSH level at 2.5 uM incubated for 1 hr followed by SNP stimulation and measured after 24 hrs (reference value: 75.78 +/- 1.74 nM/mg). Particulars: time 25.0 hrs. It is filed as cell-based.
Series [19] in a line: Toxicity in […] assessed as body weight at 400 mg/kg, ip observed after immediately (reference value: 24.4 to 28.4 g). It is filed as organism-based. Particulars: in vivo.
A short description of series [20]: Metal chelating activity of the compound assessed as Fe2+-compound complex formation incubated for 10 mins in presence of ferrozine by UV-visible spectrophotometry. Particulars: read-out: IC50.
Series [21] in a line: AUC (0 to infinity) in Sprague-Dawley rat at 20 mg/kg, po measured upto 24 hrs by LC-MS/MS analysis. Further details: route oral, dose 20 mg/kg, time <=24. Particulars: in vivo. It is filed as ADME, organism-based.

Turning to `COc1ccc(-c2nc(-c3ccccc3O)n(-c3ccc(S(N)(=O)=O)cc3)n2)c(O)c1`, in the series on PC-12 [1], the inhibition result was “Active”. The Activity result in series [2] was “Dose-dependent effect”; in series [3], “Non-Toxic”; in [5], 77.9 mU/mg; in series [6], “Dose-dependent effect”; in the series on PC-12 [7] it was 30%; in series [8], 39.1 U/mg. For the same molecule, the Activity in [10] is 42.5 mU/mg; in [11], 24.5 g; in series [12], 44.4 mU/mg; in series [14] it was “Dose-dependent effect”; in [16], 80.6 nM/mg; in series [18], 79.1 nM/mg. Besides, in series [19], the Activity is 24.6 g. Besides, in series [4], the LD50 at 168 h is 400 mg/kg. Besides, in the series with PC-12 [9], the outcome was inactive. The outcome (in the series on Rattus norvegicus; in series [13]) was Active. For the same molecule, the mean residence time (MRT) in series [15] is 6.32 h. The molecule also had a clearance in series [17] of 15 mL/min/kg. In [20], the IC50 is 36.3 µM. The same molecule returned an AUC(0-inf) in [21] of 14200 ng·h/mL.

The term LD50 denotes the dose at which mortality reaches 50%. For orientation: MRT means a mean duration of stay, worked out from the concentration-time curve. Broadly, the clearance is the rate of elimination divided by the concentration. In general, IC50 refers to the concentration that gives 50% inhibition. The AUC(0-inf) is the area under the concentration-time curve extrapolated to infinity.
